Results from patent US7507860B2 (Pfizer Inc., priority 2004, dated 2009).
pIC50: −log10 of the molar value.

Molecular target: T1, androgen receptor (Homo sapiens, UniProt P10275)
T1 sequence (P10275 1-920 Q868H): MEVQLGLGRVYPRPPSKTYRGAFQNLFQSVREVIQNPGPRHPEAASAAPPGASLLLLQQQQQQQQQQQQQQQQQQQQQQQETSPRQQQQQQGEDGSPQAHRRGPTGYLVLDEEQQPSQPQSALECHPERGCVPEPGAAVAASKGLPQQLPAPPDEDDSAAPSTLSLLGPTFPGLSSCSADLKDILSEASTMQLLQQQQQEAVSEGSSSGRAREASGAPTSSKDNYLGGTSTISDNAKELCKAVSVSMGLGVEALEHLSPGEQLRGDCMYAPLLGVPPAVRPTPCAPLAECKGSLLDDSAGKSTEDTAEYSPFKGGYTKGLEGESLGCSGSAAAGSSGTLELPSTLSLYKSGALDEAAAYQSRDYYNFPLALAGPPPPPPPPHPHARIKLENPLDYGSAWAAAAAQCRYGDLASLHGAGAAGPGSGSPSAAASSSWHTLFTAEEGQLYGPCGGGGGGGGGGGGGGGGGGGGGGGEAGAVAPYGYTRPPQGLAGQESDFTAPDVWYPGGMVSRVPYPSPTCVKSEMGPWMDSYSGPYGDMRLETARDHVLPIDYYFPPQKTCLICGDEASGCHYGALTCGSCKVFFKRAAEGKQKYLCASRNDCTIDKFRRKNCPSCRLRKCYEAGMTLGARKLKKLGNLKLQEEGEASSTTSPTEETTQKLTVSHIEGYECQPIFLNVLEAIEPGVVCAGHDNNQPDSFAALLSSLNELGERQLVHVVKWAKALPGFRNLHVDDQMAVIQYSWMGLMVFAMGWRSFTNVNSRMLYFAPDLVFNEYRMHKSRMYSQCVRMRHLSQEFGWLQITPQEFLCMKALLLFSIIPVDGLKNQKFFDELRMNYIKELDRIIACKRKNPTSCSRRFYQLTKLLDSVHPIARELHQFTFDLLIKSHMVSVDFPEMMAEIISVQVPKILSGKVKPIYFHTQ
Assay: AR antagonist cell assay (MDA-MB453-MMTV clone 54-19 luciferase reporter, 100 pM DHT)
Type: cell-based
Settings: MDA-MB453-MMTV clone 54-19, inhibition of 100 pM DHT induction, 17 hr; mean of multiple tests; read-out: AR Cell IC50
Method in brief: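 MDA-MB453 cells stably carrying an MMTV-ARE firefly luciferase reporter were plated overnight at 10,000/well in phenol-red-free, charcoal-stripped serum medium. Cells were stimulated with 100 pM DHT (final) for 17 hr at 37 °C, and AR antagonism was read as luciferase signal; values are means of multiple tests.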

SMILES | pIC50
CC(C)CC(Oc1ccc(C#N)c(C(F)(F)F)c1)C(=O)NCc1ccccc1 (centres unmarked) [Example 1, 2-(4-Cyano-3-trifluoromethyl-phenoxy)-4-methyl-pentanoic acid benzylamide] | 6.70
CCCC(Oc1ccc(C#N)c(C(F)(F)F)c1)C(=O)NCc1ccccc1 (centres unmarked) [Example 4, 2-(4-Cyano-3-trifluoromethyl-phenoxy)-pentanoic acid benzylamide] | 7.24
